Two compounds from ChEMBL document CHEMBL2074284, “Transport of ochratoxin A by renal multispecific organic anion transporter 1” (J Pharmacol Exp Ther, 1999) can be followed below.

The target of data set [1] is T1, Solute carrier family 22 member 6 (Rattus norvegicus, UniProt O35956).
T1 sequence (O35956 whole entry): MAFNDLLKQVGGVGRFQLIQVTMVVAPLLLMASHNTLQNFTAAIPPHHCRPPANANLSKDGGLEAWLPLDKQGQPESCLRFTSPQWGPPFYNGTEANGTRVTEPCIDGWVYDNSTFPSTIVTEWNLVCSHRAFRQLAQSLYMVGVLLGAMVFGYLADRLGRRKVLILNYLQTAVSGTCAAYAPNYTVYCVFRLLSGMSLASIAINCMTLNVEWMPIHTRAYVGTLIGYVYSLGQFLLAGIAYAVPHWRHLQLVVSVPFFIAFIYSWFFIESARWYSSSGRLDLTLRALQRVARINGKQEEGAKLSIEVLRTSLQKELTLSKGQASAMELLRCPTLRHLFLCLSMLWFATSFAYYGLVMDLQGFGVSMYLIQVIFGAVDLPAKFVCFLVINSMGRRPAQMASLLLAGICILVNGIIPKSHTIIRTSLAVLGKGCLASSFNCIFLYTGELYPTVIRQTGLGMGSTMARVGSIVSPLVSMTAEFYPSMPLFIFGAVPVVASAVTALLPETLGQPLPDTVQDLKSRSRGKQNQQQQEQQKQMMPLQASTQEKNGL
As to the kind of experiment: TP_TRANSPORTER: inhibition of Ochratoxin A uptake (OTA: 1 uM, Aspartame: 1000 uM) in Xenopus laevis oocytes. It is filed as functional, cell-based. To be noted: oocyte.

The target of data set [2] is T1, Solute carrier family 22 member 6. Description: TP_TRANSPORTER: inhibition of Ochratoxin A uptake (OTA: 1 uM, Citrinin: 200 uM) in Xenopus laevis oocytes. It is filed as functional, cell-based. To be noted: oocyte.

Turning to `COC(=O)[C@H](Cc1ccccc1)NC(=O)[C@@H](N)CC(=O)O`, the Activity result in data set [1] was “is not an inhibitor [-]”.
As to `CC1=C2C(=CO[C@H](C)[C@H]2C)C(O)=C(C(=O)O)C1=O` [CITRININ], in data set [2], the Activity entry is “inhibitor [(at a rough estimate) 20 % of control]”.
